# Laboratory results reported in the supplement of paper PMC10307832.
# Columns and labels:
# Experiment in all cases: relative viability (nuclei count vs DMSO), 5 days (fraction); higher = more cells survive
# IDH-C35 + Crizotinib = compound: Cc1ccccc1C(C(=O)NC1CCCCC1)N(C(=O)Cn1ccnc1C)c1cccc(F)c1 [IDH-C35] + C[C@@H](Oc1cc(-c2cnn(C3CCNCC3)c2)cnc1N)c1c(Cl)ccc(F)c1Cl [Crizotinib] (partner 1 µM)
# Procedure, shortened: (§1)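 Relative viability divides the nuclei count in treated wells by that in vehicle wells. Lung cancer cell lines were seeded in 1536-well plates, dosed by pin tool the next day, and fixed and stained after 5 days in one step with final 0.05% Triton X-100, 1% formaldehyde and 1 ug/ml Hoechst. Dosing was a single drug or a fixed anchor-drug dose plus five library-drug doses (not always all listed) in √10 steps, and values are medians of duplicate plates imaged at 4×.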
# IDH-C35 + Olaparib = compound: Cc1ccccc1C(C(=O)NC1CCCCC1)N(C(=O)Cn1ccnc1C)c1cccc(F)c1 [IDH-C35] + O=C(c1cc(Cc2n[nH]c(=O)c3ccccc23)ccc1F)N1CCN(C(=O)C2CC2)CC1 [Olaparib] (partner 8 µM)
# Procedure, shortened: as §1
# IDH-C35 + Bortezomib = compound: Cc1ccccc1C(C(=O)NC1CCCCC1)N(C(=O)Cn1ccnc1C)c1cccc(F)c1 [IDH-C35] + CC(C)C[C@H](NC(=O)[C@H](Cc1ccccc1)NC(=O)c1cnccn1)B(O)O [Bortezomib] (partner 0.002 µM)
# Procedure, shortened: as §1
# IDH-C35 + Decitabine = compound: Cc1ccccc1C(C(=O)NC1CCCCC1)N(C(=O)Cn1ccnc1C)c1cccc(F)c1 [IDH-C35] + Nc1ncn([C@H]2C[C@H](O)[C@@H](CO)O2)c(=O)n1 [Decitabine] (partner 2 µM)
# Procedure, shortened: as §1
cell line,measurement,setting,value
UMC-11,relative viability,IDH-C35 + Crizotinib; first compound 0.08 µM,0.578
same,relative viability,IDH-C35 + Crizotinib; first compound 0.253 µM,0.56
same,relative viability,IDH-C35 + Crizotinib; first compound 0.8 µM,0.481
same,relative viability,IDH-C35 + Crizotinib; first compound 2.53 µM,0.576
same,relative viability,IDH-C35 + Crizotinib; first compound 8 µM,0.629
same,relative viability,IDH-C35 + Olaparib; first compound 0.08 µM,0.383
same,relative viability,IDH-C35 + Olaparib; first compound 0.253 µM,0.366
same,relative viability,IDH-C35 + Olaparib; first compound 0.8 µM,0.402
same,relative viability,IDH-C35 + Olaparib; first compound 2.53 µM,0.382
same,relative viability,IDH-C35 + Olaparib; first compound 8 µM,0.445
same,relative viability,IDH-C35 + Bortezomib; first compound 0.08 µM,0.736
same,relative viability,IDH-C35 + Bortezomib; first compound 0.253 µM,0.737
same,relative viability,IDH-C35 + Bortezomib; first compound 0.8 µM,0.487
same,relative viability,IDH-C35 + Bortezomib; first compound 2.53 µM,0.65
same,relative viability,IDH-C35 + Bortezomib; first compound 8 µM,0.636
same,relative viability,IDH-C35 + Decitabine; first compound 0.08 µM,0.572
same,relative viability,IDH-C35 + Decitabine; first compound 0.253 µM,0.724
same,relative viability,IDH-C35 + Decitabine; first compound 0.8 µM,0.576
same,relative viability,IDH-C35 + Decitabine; first compound 2.53 µM,0.609
same,relative viability,IDH-C35 + Decitabine; first compound 8 µM,0.619
